Data published in patent US20120010557A1, “Drug Delivery System for Use in the Treatment of Vascular and Vessel-Related Pathologies” (priority 2009, published 2012).

Legend:
[1] = not told; cited from earlier work
[2] = system: laser-induced thrombus in hamster dorsal skin fold venules; experiment: Laser-induced thrombosis in hamster dorsal skin fold venules, intravital fluorescence microscopy; type: in vivo; conditions: infused
Excerpt: In the research that led to the invention it was shown that, in PWS vascular analogues (hamster dorsal skin fold venules), the photothermal response is ensued by a hemodynamic response, namely the initiation of primary and secondary hemostasis following laser-induced endovascular damage. There is increasing evidence that misfolded proteins and corollary fibrillar structures referred to as amyloid have the propensity to activate platelets (Herczenik E et al. Arterioscler Thromb Vasc Biol. 2007 July; 27(7):1657-65) and the contact activation pathway (Maas C et al. J Clin Invest. 2008 September; 118(9):3208-18). Inasmuch as thermal coagula are comprised of thermally denatured (i.e., misfolded) proteins, these laser-induced lesions may constitute the basis for the initiation of primary and secondary hemostasis in addition to a thermally afflicted endothelium. […]
FIG. 1: Aggregation of 5,6-carboxyfluorescein (CF)-labeled platelets at the site of laser-induced damage in hamster dorsal skin fold venules as visualized by intravital fluorescence microscopy without (A-F) and with (G-L) priorly infused heparin (Hep). […]

Row | Compound | Increase in bilayer permeability [1] | Effect on laser-induced thrombus formation / lesional size [2]
1 | CC=CC=CC(=O)OCCCCCCCCCC(=O)OC[C@H](COP(=O)([O-])OCC[N+](C)(C)C)OC(=O)CCCCCCCCCOC(=O)C=CC=CC [bis-SorbPC, 1,2-bis[10-(2′,4′-hexadienoloxy)decanonyl]-sn-glycero-3-phosphocholine] | up to 28.000 fold | 
2 | heparin |  | impeding effect on the lesional size
